Measurements taken from publication PMC10907560, “Significant reduction of activity retention in the kidneys via optimized linker sequences in radiohybrid-based minigastrin analogs” (EJNMMI Research, 2024).

Biological target: T1, cholecystokinin-2 receptor (CCK-2R) (Rattus norvegicus, UniProt P30553)
T1 construct: host or cells: AR42J (rat pancreatic cancer cells)
T1 sequence (P30553 1-452): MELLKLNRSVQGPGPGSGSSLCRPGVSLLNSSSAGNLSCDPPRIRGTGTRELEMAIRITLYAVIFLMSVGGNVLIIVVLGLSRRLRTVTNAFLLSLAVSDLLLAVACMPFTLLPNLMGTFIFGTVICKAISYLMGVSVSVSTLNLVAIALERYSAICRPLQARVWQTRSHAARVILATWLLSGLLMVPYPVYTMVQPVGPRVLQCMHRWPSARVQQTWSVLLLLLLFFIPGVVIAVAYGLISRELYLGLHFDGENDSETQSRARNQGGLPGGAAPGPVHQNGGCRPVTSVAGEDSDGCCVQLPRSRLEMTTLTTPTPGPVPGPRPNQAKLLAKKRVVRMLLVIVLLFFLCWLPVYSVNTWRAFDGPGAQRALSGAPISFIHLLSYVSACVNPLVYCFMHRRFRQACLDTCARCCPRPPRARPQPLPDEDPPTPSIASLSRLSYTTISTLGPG
Assay: CCK-2R affinity (apparent IC50), competitive binding on AR42J cells
Conditions: natLu-labeled peptide, 3 h, 37 °C, [177Lu]Lu-DOTA-PP-F11N (0.3 pmol) as radiolabeled reference
Procedure: On the next day, medium was removed, cells were washed with PBS (300 µL) and fresh nutrient medium supplemented with 5% BSA (200 µL) was added. The peptide of interest (25 µL in nutrient medium) in increasing concentrations (10^−10 to 10^−4 M) in triplicate as well as [^177Lu]Lu-DOTA-PP-F11N (25 μL, 0.3 pmol) were added to the cells and the assay was incubated for 3 h at 37 °C. Subsequently, the supernatant was collected, cells were washed with PBS (300 µL) and both fractions were unified. Cell lysis was conducted by addition of NaOH (300 µL, 1 N) and incubation for at least 20 min at room temperature. The supernatant was collected, the respective wells were washed with NaOH (300 µL, 1 N) and both fractions were unified. Radioactivity of all fractions collected was quantified using a γ-counter (PerkinElmer Inc., Waltham, United States). Apparent half-maximal inhibitory concentration (IC50) was calculated via the GraphPad PRISM software (GraphPad Software Inc., La Jolla, United States).
CCK-2R positive rat pancreatic cancer cells AR42J (CLS GmbH, Eppelheim, Germany) were cultivated in monolayers in CELLSTAR® cell culture flask (Greiner Bio-One GmbH, Frickenhausen, Germany) at 37°C in a humidified atmosphere (5% CO2). Therefor, a HERAcell 150i-Incubator (Thermo Fisher Scientific Inc., Waltham, United States) was used. RPMI 1640 medium, supplemented with 5 mM L-Gln 5 mL non-essential amino acids (100×) and 10% FCS, was used for cell nutrition. Detachment of the cells for passaging was conducted with a Dulbecco’s PBS solution supplemented with 0.1% EDTA (v/v). Cell numbers were determined with a Neubauer hemocytometer (Paul Marienfeld, Lauda-Königshofen, Germany). All operations requiring sterile conditions, were accomplished using a MSC-Advantage safety workbench (Thermo Fisher Scientific Inc., Waltham, United States).
Table S1. Affinity, lipophilicity and human serum albumin binding data of the compounds evaluated. Affinity data were determined on AR42J cells (2.0 × 10^5 cells/well) and [^177Lu]Lu-DOTA-PP-F11N (0.3 pmol/well) as radiolabeled reference (3 h, 37 °C, RPMI 1640, 5 mM L-Gln, 5 mL non-essential amino acids (100×), 10% FCS + 5% BSA (v/v)).

Question: How did the IC50 (n = 3, listed as [^177/natLu]Lu-DOTA-rhCCK-91) turn out when CCCC[C@@H](C(=O)N[C@@H](CC(=O)O)C(=O)N[C@@H](Cc1cccc2ccccc12)C(N)=O)N(C)C(=O)[C@H](Cc1c[nH]c2ccccc12)NC(=O)CCOCCOCCOCCOCCNC(=O)CC[C@@H](NC(=O)CCOCCOCCOCCOCCOCCNC(=O)CC[C@@H](NC(=O)[C@@H](CNC(=O)C[N+](C)(C)Cc1ccc([Si](F)(C(C)(C)C)C(C)(C)C)cc1)NC(=O)CN1CCN(CC(=O)O)CCN(CC(=O)O)CCN(CC(=O)O)CC1)C(=O)O)C(=O)O [[^nat/177Lu]Lu-DOTA-rhCCK-91, DOTA-D-Dap(SiFAlin)-D-γ-Glu-(PEG)4-D-γ-Glu-(PEG)3-Trp-(N-Me)Nle-Asp-1-Nal-NH2, metal not drawn] was run?
Answer: 8.6 ± 0.7 nM

Question: What about the IC50 (n = 3, listed as [^natLu]Lu-DOTA-rhCCK-91) of the same molecule?
Answer: 8.56 ± 0.66 nM
